In US11396513B2, “Compositions for activating pyruvate kinase” (FORMA Therapeutics, Inc., priority 2017, dated 2022):

Columns and labels:
PKR (wild type) = PKR (wild type) (Homo sapiens, UniProt P30613); test: Luminescence Assay (Kinase Glo Plus), PKR wild type; format: biochemical
Method: (§1) The ability of compound 1 to activate PKR was determined using the following Luminescence Assay. The effect of phosphorylation of adenosine-5′-diphosphate (ADP) by PKR (wild type) is determined by the Kinase Glo Plus Assay (Promega) in the presence or absence of FBP [D-Fructose-1,6-diphosphate; BOC Sciences, CAS: 81028-91-3] as follows. Unless otherwise indicated, all reagents are purchased from Sigma-Aldrich. All reagents are prepared in buffer containing 50 mM Tris-HC1, 100 mM KC1, 5 mM MgC12, and 0.01% Triton X100, 0.03% BSA, and 1 mM DTT. Enzyme and PEP [Phospho(enol) pyruvic acid] are added at 2× to all wells of an assay-ready plate containing serial dilutions of test compounds or DMSO vehicle. Final enzyme concentrations for PKR(wt), PKR(R510Q), and PKR(G332S) are 0.8 nM, 0.8 nM, and 10 nM respectively. Final PEP concentration is 100 μM. The Enzyme/PEP mixture is incubated with compounds for 30 minutes at RT before the assay is initiated with the addition of 2×ADP [Adenosine-5′-diphosphate] and KinaseGloPlus. Final concentration of ADP is 100 μM. […] For assays containing FBP, that reagent is added at 30 μM upon reaction initiation. Reactions are allowed to progress for 45 minutes at RT until luminescence is recorded by the BMG PHERAstar FS Multilabel Reader. The compound is tested in triplicate at concentrations ranging from 42.5 μM to 2.2 nM in 0.83% DMSO. […]

PKR(G332S) = PKR(G332S) (Homo sapiens, UniProt P30613, G332S); test: Luminescence Assay (Kinase Glo Plus), G332S PKR mutant; format: biochemical; details: G332S PKR mutant 10 nM; PEP 100 μM; ADP 100 μM; four parameter fit; triplicate
Chain of PKR(G332S) (P30613 whole entry G332S): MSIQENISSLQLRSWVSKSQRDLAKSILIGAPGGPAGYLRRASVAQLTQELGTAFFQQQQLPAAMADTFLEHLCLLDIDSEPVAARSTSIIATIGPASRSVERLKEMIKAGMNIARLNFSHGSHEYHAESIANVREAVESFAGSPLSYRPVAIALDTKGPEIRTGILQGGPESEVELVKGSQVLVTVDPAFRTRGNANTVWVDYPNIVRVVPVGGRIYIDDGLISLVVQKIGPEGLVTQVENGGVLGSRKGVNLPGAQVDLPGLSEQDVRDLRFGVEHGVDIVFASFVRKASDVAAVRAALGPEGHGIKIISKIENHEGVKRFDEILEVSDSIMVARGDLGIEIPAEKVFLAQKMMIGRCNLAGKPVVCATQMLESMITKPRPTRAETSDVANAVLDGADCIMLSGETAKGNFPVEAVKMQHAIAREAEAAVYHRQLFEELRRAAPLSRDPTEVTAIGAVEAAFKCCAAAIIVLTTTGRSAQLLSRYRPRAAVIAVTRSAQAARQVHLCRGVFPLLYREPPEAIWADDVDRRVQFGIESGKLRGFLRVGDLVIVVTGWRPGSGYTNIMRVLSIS
Method: as §1

Chain of PKR (wild type) (P30613 whole entry): as the sequence (P30613 whole entry G332S) above, with S332G counted along it

AC50 (PKR (wild type); Luminescence Assay, PKR form not specified, definition of PKR Activator Compound): < 1000 nM | AC50 (PKR (wild type); PKR wild type enzyme 0.8 nM, PEP 100 μM, ADP 100 μM, four parameter fit, triplicate): 100 to 1000 nM | AC50 (PKR(G332S)): 100 to 1000 nM
Structure (SMILES): CC(C)(O)C(=O)N1CC2=C(C1)CN(S(=O)(=O)c1ccc3c(c1)NCCO3)C2 [compound 1, 1-(5-((3,4-Dihydro-2H-benzo[b][1,4]oxazin-6-yl)sulfonyl)-3,4,5,6-tetrahydropyrrolo[3,4-c]pyrrol-2(1H)-yl)-2-hydroxy-2-methylpropan-1-one]
